Experimental data: US20130296311A1, “INHIBITORS OF HCV NS5A” (PRESIDIO PHARMACEUTICALS, INC., priority 2010, published 2013)

tested on: HCV 1b_Huh-Luc/Neo-ET cell line persistently expressing a bicistronic genotype 1b replicon in Huh 7 cells; assay: HCV replicon assay (luciferase readout, 72 h); type: cell-based, HCV genotype 1b; settings: Hepatitis C virus, Huh-7, 72 h, read-out: Inhibition of HCV genotype 1b
Procedure, shortened: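 Huh 7 cells carrying a bicistronic genotype 1b luciferase/neo replicon received compound in triplicate the day after plating. After 72 h, replicon levels were read as Bright-Glo luciferase activity, expressed as % of control; EC50 was fitted with a four-parameter logistic and determined several times.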

| SMILES | EC50 [nM] |
| --- | --- |
| COC(=O)N[C@@H](C(=O)N1CCC[C@H]1c1ncc(-c2ccc(C#Cc3ccc(-c4cnc([C@@H]5CCCN5C(=O)NCc5ccccc5)[nH]4)cc3)cc2)[nH]1)c1ccccc1 [Compound 197] | < 1 |
| COC(=O)N[C@@H](C(=O)N1CCC[C@H]1c1ncc(C#Cc2ccc(C#Cc3cnc([C@@H]4CCCN4C(=O)[C@H](NC(=O)OC)c4ccccc4)[nH]3)cc2)[nH]1)c1ccccc1 [Compound 304] | < 1 |
| CC(C)(C)OC(=O)N[C@@H](C(=O)N1CCC[C@H]1c1ncc(-c2ccc(C#Cc3ccc(-c4cnc([C@@H]5CCCN5C(=O)[C@H](NC(=O)OC(C)(C)C)c5ccccc5)[nH]4)cc3)cc2)[nH]1)c1ccccc1 [Compound 246] | < 1 |
| CC(C)[C@H](NC(=O)[C@H](NC(=O)OC(C)(C)C)c1ccccc1)c1ncc(-c2ccc(C#Cc3ccc(-c4cnc([C@@H]5CCCN5C(=O)[C@H](NC(=O)OC(C)(C)C)c5ccccc5)[nH]4)cc3)cc2)[nH]1 [Compound 281] | 1 to 9.9 |
| COC(=O)N[C@@H](C(=O)N1CCC[C@H]1c1ncc(-c2ccc(C#Cc3cnc([C@@H]4CCCN4C(=O)[C@@H](c4ccccc4)N(C)C)[nH]3)cc2)[nH]1)c1ccccc1 [Compound 128] | < 1 |
| COC(=O)N[C@@H](CC(C)C)C(=O)N1CCC[C@H]1c1ncc(-c2ccc(C#Cc3ccc(-c4cnc([C@@H]5CCCN5C(=O)[C@H](CC(C)C)NC(=O)OC)[nH]4)cc3)cc2)[nH]1 [Compound 961] | < 1 |
| O=C([C@H](O)c1ccccc1)N1CCC[C@H]1c1ncc(-c2ccc(C#Cc3ccc(-c4cnc([C@@H]5CCCN5C(=O)[C@H](O)c5ccccc5)[nH]4)cc3)cc2)[nH]1 [Compound 157] | < 1 |
| CC(C)[C@@H](NC(=O)OC(C)(C)C)C(=O)N1CCC[C@H]1C(=O)Nc1ccc(C#Cc2cnc([C@@H]3CCCN3C(=O)[C@H](NC(=O)OC(C)(C)C)C(C)C)[nH]2)cc1 [Compound 114] | 10 to 999 |
| COC(=O)N[C@H](C(=O)N1CCC[C@H]1c1ncc(-c2ccc(C#Cc3ccc4nc([C@@H]5CCCN5C(=O)[C@@H](NC(=O)OC)C5CCOCC5)[nH]c4c3)cc2F)[nH]1)C1CCOCC1 [Compound 1070] | < 1 |
| COC(=O)N[C@@H](C(=O)N1CCC[C@H]1c1ncc(-c2ccc(C#Cc3ccc(-c4cnc([C@@H]5CCCN5C(=O)Nc5ccccc5)[nH]4)cc3)cc2)[nH]1)c1ccccc1 [Compound 196] | 1 to 9.9 |
| CCN(CC)[C@@H](C(=O)N1CCC[C@H]1c1ncc(C#Cc2ccc(C#Cc3cnc([C@@H]4CCCN4C(=O)[C@H](NC(=O)OC)c4ccccc4)[nH]3)cc2)[nH]1)c1ccccc1 [Compound 315] | < 1 |
| COC(=O)N[C@H](C(=O)N1CCC[C@H]1c1nc2c([nH]1)-c1ccc(C#Cc3ccc4nc([C@@H]5CCCN5C(=O)[C@H](NC(=O)OC5CCOCC5)c5ccccc5)[nH]c4c3)cc1CC2)C(C)C [Compound 1104] | < 1 |
| COC(=O)N[C@@H](C)C(=O)N1CCC[C@H]1c1ncc(-c2ccc(C#Cc3ccc4nc([C@@H]5CCCN5C(=O)[C@H](C)NC(=O)OC)[nH]c4c3)cc2)[nH]1 [Compound 1028] | < 1 |
| O=C([C@@H](c1ccccc1)N1CCOCC1)N1CCC[C@H]1c1ncc(-c2ccc(C#Cc3ccc(-c4cnc([C@@H]5CCCN5C(=O)[C@@H](c5ccccc5)N5CCOCC5)[nH]4)cc3)cc2)[nH]1 [Compound 184] | < 1 |
| COC(=O)N[C@H](C(=O)N1CCC[C@H]1c1nc2ccc3cc(C#Cc4ccc(-c5cnc([C@@H]6CCCN6C(=O)[C@@H](NC(=O)OC)C6CCOCC6)[nH]5)cc4)ccc3c2[nH]1)C(C)C [Compound 1092] | < 1 |
| COC(=O)N[C@@H](C(=O)N1CCC[C@H]1c1ncc(-c2ccc(C#Cc3ccc(-c4cnc([C@@H]5CCCN5C(=O)[C@H](NC(=O)N5CC[C@@H](OC)C5)c5ccccc5)[nH]4)cc3)cc2)[nH]1)c1ccccc1 [Compound 271] | < 1 |
| COC(=O)N[C@H](C(=O)N1CCC[C@H]1c1ncc(-c2ccc(C#Cc3ccc4nc([C@@H]5CCCN5C(=O)[C@@H](NC(=O)OC)C(C)C)[nH]c4c3)nc2)[nH]1)C(C)C [Compound 1033] | < 1 |
| COC(=O)N[C@H](C(=O)N1CCC[C@H]1c1nc2ccc3cc(C#Cc4ccc(-c5cnc([C@@H]6CCCN6C(=O)[C@H](NC(=O)OC)c6ccccc6)[nH]5)cc4F)ccc3c2[nH]1)C(C)C [Compound 1100] | < 1 |
| COC(=O)N[C@H](C(=O)N1CCC[C@H]1c1ncc(-c2ccc(C#Cc3ccc(-c4cnc([C@@H]5CCCN5C(=O)[C@@H](c5ccccc5)N5CCC(O)CC5)[nH]4)cc3)cc2)[nH]1)C(C)C [Compound 956] | < 1 |
| COC[C@H](NC(=O)OC)C(=O)N1CCC[C@H]1c1ncc(-c2ccc(C#Cc3ccc4nc([C@@H]5CCCN5C(=O)[C@H](COC)NC(=O)OC)[nH]c4c3)cc2)[nH]1 [Compound 1037] | < 1 |
| CC(C)[C@@H](C(=O)N1CCC[C@H]1c1ncc(-c2ccc(C#Cc3ccc4nc([C@@H]5CCCN5C(=O)[C@H](C(C)C)N5CCOC5=O)[nH]c4c3)cc2)[nH]1)N1CCOC1=O [Compound 1039] | 1 to 9.9 |
| CCOC(=O)N[C@@H](C(=O)N1CCC[C@H]1c1ncc(-c2ccc(C#Cc3ccc(-c4cnc([C@@H]5CCCN5C(=O)[C@H](NC(=O)OCC)c5ccccc5)[nH]4)cc3)cc2)[nH]1)c1ccccc1 [Compound 244] | < 1 |
| COC(=O)N[C@H](C(=O)N[C@@H](C)c1nc2ccc(C#Cc3ccc(-c4cnc([C@@H]5CCCN5C(=O)[C@@H](NC(=O)OC)C(C)C)[nH]4)cc3)cc2[nH]1)C(C)C [Compound 867] | < 1 |
| COC(=O)N[C@H](C(=O)N1CCC[C@H]1c1ncc(C#Cc2cccc3c(C#Cc4cnc([C@@H]5CCCN5C(=O)[C@@H](NC(=O)OC)C(C)C)[nH]4)cccc23)[nH]1)C(C)C [Compound 1113] | < 1 |
| O=C(N[C@@H](C(=O)N1CCC[C@H]1C(=O)Nc1ccc(C#Cc2cnc([C@@H]3CCCN3C(=O)[C@H](NC(=O)C3CC3)c3ccccc3)[nH]2)cc1)c1ccccc1)C1CC1 [Compound 117] | < 1 |

same assay, conditions: Hepatitis C virus, Huh-7, read-out: Inhibition of HCV genotype 1b

| SMILES | EC50 [nM] |
| --- | --- |
| COC(=O)N[C@H](C(=O)N1CCC[C@H]1c1ncc(-c2ccc3cc(C#Cc4[nH]c([C@@H]5CCCN5C(=O)[C@@H](NC(=O)OC)[C@@H](C)OC)nc4C(F)(F)F)ccc3c2)[nH]1)C(C)C [Compound 1258] | < 1 |
| COC(=O)N[C@H](C(=O)N1CCC[C@H]1c1ncc(-c2ccc3cc(C#Cc4[nH]c([C@@H]5CCCN5C(=O)[C@@H](NC(=O)OC)C(C)C)nc4C4CC4)ccc3c2)[nH]1)C(C)C [Compound 1300] | < 1 |
| COC(=O)N[C@H](C(=O)N1CCC[C@H]1c1ncc(-c2ccc(C#Cc3ccc4c(ccc5nc([C@@H]6CCCN6C(=O)[C@@H](NC(=O)OC)C6CCOCC6)[nH]c54)c3)cc2)[nH]1)C(C)C [Compound 1272] | < 1 |
| COC(=O)N[C@@H](C(=O)N1CCC[C@H]1c1ncc(-c2ccc(C#Cc3ccc(-c4cnc([C@@H]5CCCN5C(=O)[C@H](NC(=O)OC)c5ccccc5)[nH]4)cc3C(=O)OC)cc2)[nH]1)c1ccccc1 [Compound 1201] | < 1 |
| COC(=O)N[C@H](C(=O)N1CCC[C@H]1c1nc(C#N)c(C#Cc2ccc3cc(-c4cnc([C@@H]5CCCN5C(=O)[C@@H](NC(=O)OC)[C@@H](C)OC)[nH]4)ccc3c2)[nH]1)C1CCCC1 [Compound 1270] | < 1 |
| COC(=O)N[C@H](C(=O)N1CCC[C@H]1c1nc(C)c(C#Cc2ccc3cc(-c4cnc([C@@H]5CCCN5C(=O)[C@@H](NC(=O)OC)[C@@H](C)OC)[nH]4)ccc3c2)[nH]1)C(C)C [Compound 1264] | < 1 |
